Assay results published in paper PMC9394284, “Discovery of Novel Dual Adenosine A2A and A1 Receptor Antagonists with 1H-Pyrazolo[3,4-d]pyrimidin-6-amine Core Scaffold as Anti-Parkinson’s Disease Agents” (Pharmaceuticals, 2022).
Read-outs that look alike come from different tables or passages of the source.

Columns and labels:
[1] = system: MPTP-lesioned mouse model; test: MPTP-lesioned mouse model of Parkinson's disease; assay type: in vivo, C57BL/6J mice
Source text: In a subsequent study, we investigated the therapeutic efficacy of 11o in PD using an MPTP-lesioned mouse model. This MPTP-lesion mouse model is one of the most well-established PD models and causes an approximately 90% loss of striatal dopamine, as analyzed using HPLC 7 days after the administration of the last dose of MPTP [13].
Male C57BL/6J mice of 10 weeks of age were purchased from Charles River Laboratories (Charles River Laboratories, Freiburg, Germany) and maintained at QPS Austria. All procedures described were reviewed and approved by IACUC at QPS Austria. Animal studies conformed to the Austrial guidelines for the care and use of laboratory animals (Tierversuchsgesetz 2012-TVG 2012, BGB1. I Nr. 114/2012). […]
To test individual nest-building behavior, mice were housed individually in cages containing wood-chip bedding and one square of pressed cotton (‘nestlet’). […] The nestlet was introduced on the day before the evaluation of the nest status in about 2 to 3 h before the dark phase was initiated, and the nest-building behavior was evaluated on the following day of the experiment within 2~3 h after the light-phase start. […] Manipulation of the nestlet and the constitution of the built nest were assessed according to five-point scale as follows: 1. […]

[2] = pharmacokinetics and brain/plasma ratio in mouse brain; assay type: in vivo, Crl:CD-1 mice; settings: male; for AUC(0-t) / Cmax / Tmax / half-life: mouse brain
Method: Male Crl:CD-1 mice of 9~10 weeks of age were purchased from Charles River Laboratories, USA and maintained at standard food and water ad libitum in temperature-controlled room with 12 h on-off light cycle before the experiment. All procedures described were reviewed and approved by the Institutional Animal Care and Use Committee (IACUC) at Frontage Laboratories Inc. For PO dosing, mice were given 11o dissolved in DMSO: PEG400 (1:3, v:v) via gavage. For IV dosing, 11o solubilized in DMSO: PEG400: saline (1:3:6, v:v) were injected into tail veins at dose volume of 1 mL/kg. For IN dosing, 11o solubilized in DMSO and 25 μL of the appropriate dosing solution was placed near the nares to allow animal to inhale the dose. Three mice were sampled from each group for each blood and brain collection time point. Time points are 0.5, 1, 2, 4, 8, 24 h for PO and IN dosing and 0.083, 1, 2, 4, 8 and 24 h for IV dosing. Mice were euthanized by terminal retro-orbital blood collection under isoflurane anesthesia, followed by opening of the thoracic cavity per facility SOPs. A target volume of 1 mL was collected into tubes containing K3EDTA anti-coagulant, inverted several times and held on wet ice until centrifuged under refrigeration (set at 5 °C for 10 min at 2000× g). Resulting plasma were stored in a freezer set to maintain −70 °C until analyzed for 11o concentration. Brain was removed from each animal and weighed following termination, snap frozen and stored until later use. Plasma and brain PK analysis was conducted using WinNolin Version 6.2.1 (Pharsight, Mountain View, CA, USA), operating as a validated software system. Noncompartmental analysis was conducted using the extravascular administration model for oral dosing and the IV bolus model for IV dosing. The peak plasma and brain concentration, time to achieve peak plasma concentration, half-life, and area under the plasma concentration-time curve (Cmax, Tmax, T1/2 and AUC) were calculated from mean plasma concentrations for each sampling time/dose group for 11o. Nominal blood collection times were used for calculation of PK parameters. Dose proportionality was assessed, and bioavailability was calculated for PO dosing.

[3] = Crl:CD-1, inhaled or intranasal, 1 mg/kg IN
[4] = Crl:CD-1, inhaled or intranasal, 3 mg/kg IN
[5] = Crl:CD-1, inhaled or intranasal, 10 mg/kg IN

## Cc1cc(Cn2ncc3c(-c4cccc(C#N)c4F)nc(N)nc32)ccc1N [11o, 3-(6-Amino-1-(4-amino-3-methylbenzyl)-1H-pyrazolo[3,4-d]pyrimidin-4-yl)-2-fluorobenzonitrile]
[1]; MPTP-lesioned mice, intranasal 1 and 10 mg/kg, difference not significant
  nest-building activity: partially restored the activity level to near sham level
[1]; once daily for 7 days, doses up to 10 mg/kg, data not shown
  rescue of striatal dopamine depletion caused by MPTP: unable to rescue dopamine depletion
[2]; Crl:CD-1, brain/plasma, other: intranasal (IN), placed near the nares, mouse, IN 1, 3 and 10 mg/kg, read-out: B/P ratio, IN dosing groups
  Kp: 0.0698 to 0.183
[2]; Crl:CD-1, brain/plasma, mouse, PO 1, 3 and 10 mg/kg, read-out: B/P ratio, PO dosing groups
  Kp: 0.0242 to 0.167
[2]; [3]
  AUC(0-t): 5.23 ng·h/mL
  Cmax: 9.63 ng/mL
  Tmax: 0.5 h
[2]; [4]
  AUC(0-t): 14.2 ng·h/mL
  Cmax: 15.9 ng/mL
  Tmax: 0.5 h
[2]; [5]
  AUC(0-t): 81.3 ng·h/mL
  Cmax: 38.2 ng/mL
  Tmax: 0.5 h
  half-life: 3.74 h
[2]; Crl:CD-1, mouse, other: IN (intranasal, placed near the nares to inhale), 10 mg/kg IN, Brain AUClast/Plasma AUClast, read-out: B/P Ratio
  Kp: 0.183
[2]; Crl:CD-1, mouse, other: IN dosing, solution placed near the nares to inhale, 1 mg/kg IN, Brain AUClast/Plasma AUClast, read-out: B/P Ratio
  Kp: 0.0698
[2]; Crl:CD-1, mouse, other: IN dosing, solution placed near the nares to inhale, 3 mg/kg IN, Brain AUClast/Plasma AUClast, read-out: B/P Ratio
  Kp: 0.0776
[2]; Crl:CD-1, mouse, 1 mg/kg IV, Brain AUClast/Plasma AUClast, read-out: B/P Ratio
  Kp: 0.741
[2]; Crl:CD-1, mouse, 1 mg/kg PO, Brain AUClast/Plasma AUClast, read-out: B/P Ratio
  Kp: 0.0242
[2]; Crl:CD-1, mouse, 3 mg/kg PO, Brain AUClast/Plasma AUClast, read-out: B/P Ratio
  Kp: 0.0977
[2]; Crl:CD-1, mouse, 10 mg/kg PO, Brain AUClast/Plasma AUClast, read-out: B/P Ratio
  Kp: 0.167
[2]; Crl:CD-1, 1 mg/kg IV
  AUC(0-t): 246 ng·h/mL
  Cmax: 410 ng/mL
  Tmax: 0.083 h
[2]; Crl:CD-1, 1 mg/kg PO
  AUC(0-t): 4.26 ng·h/mL
  Cmax: 5.58 ng/mL
  Tmax: 2 h
[2]; Crl:CD-1, 3 mg/kg PO
  AUC(0-t): 56.4 ng·h/mL
  Cmax: 12.8 ng/mL
  Tmax: 0.5 h
  half-life: 3.23 h
[2]; Crl:CD-1, 10 mg/kg PO
  AUC(0-t): 375 ng·h/mL
  Cmax: 48.1 ng/mL
  Tmax: 2 h
  half-life: 7.71 h
